Reference: PMC10046961, “High-Throughput Screening Assay for Detecting Drug-Induced Changes in Synchronized Neuronal Oscillations and Potential Seizure Risk Based on Ca^2+ Fluorescence Measurements in Human Induced Pluripotent Stem Cell (hiPSC)-Derived Neuronal 2D and 3D Cultures” (Cells, 2023)
Read-outs that look alike come from different tables or passages of the source. Marks after values point to notes of the source that are not given here.

Legend:
[1] = test system: hiPSC-derived neurons co-cultured with human primary astrocytes in 2D; assay: Ca2+ transient oscillation assay (FDSS), 2D co-culture; assay type: cell-based; conditions: for activation at 1.11 µM / activation at 3.33 µM / activation at 10 µM / activation at 30 µM: Homo sapiens, 1 h, 60 min
Outline: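 Cultures were 10,000 CW50065 hiPSC excitatory neurons plus 2500 primary human astrocytes per well. Recordings used Cal-520 dye in HBSS/HEPES/glucose at 37 °C, with a 470/540 nm read at 2 Hz. Oscillations were stabilized with 0.04% DMSO, read for 20 min, then read again 60 min after compound addition (final DMSO 0.1%).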

[2] = ref PharmaPendium, cited from earlier work
[3] = test system: hiPSC-derived neurons co-cultured with human primary astrocytes in 3D; assay: Ca2+ transient oscillation assay (FDSS), 3D spheroids; assay type: cell-based; conditions: 60 min
Outline: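 Fura-2 fluorescence was read twice for 20 min each: a baseline 10 min after 0.04% DMSO, and again 60 min after compound addition at nominal final concentration. The 3D co-cultures (1:1 hiPSC neurons from a donor and human astrocytes, 8000 each) matured 5 weeks in BrainPhys medium after a 1-week differentiation.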

[4] = read-out: Area under the curve - 2D Mean
[5] = read-out: Peak amplitude - 2D Mean
[6] = read-out: Peak-to-peak interval - 2D Mean

Q: Which results are given for `CC(=O)Nc1ccc(O)cc1` [Acetaminophen]?
A: effect on peak count within expected therapeutic exposure levels ([1]; 2D): did not significantly reduce peak count; effect on Ca2+ neuronal oscillations / peak count at 30 µM, in words ([1]; 2D, 30 µM, listed as Paracetamol): did reduce; activation at 1.11 µM [1, 4]: 23%; activation at 1.11 µM ([1]; read-out: Peak Number—2D Mean): -11.7%; activation at 1.11 µM [1, 5]: 8.8%; activation at 1.11 µM ([1]; read-out: Peak width - 2D Mean): 13%; activation at 1.11 µM [1, 6]: 34%; activation at 3.33 µM [1, 4]: 35.8%; activation at 3.33 µM ([1]; read-out: Peak Number—2D Mean): -25%; activation at 3.33 µM [1, 5]: 12.3%; activation at 3.33 µM ([1]; read-out: Peak width - 2D Mean): 34.3%; activation at 3.33 µM [1, 6]: -35.3%; activation at 10 µM [1, 4]: 13.2%; activation at 10 µM ([1]; read-out: Peak Number—2D Mean): -18.2%; activation at 10 µM [1, 5]: -0.3%; activation at 10 µM ([1]; read-out: Peak width - 2D Mean): 16.2%; activation at 10 µM [1, 6]: -14.5%; activation at 30 µM ([1]; 30 µM, read-out: Area under the curve - 2D Mean): -93.2%; activation at 30 µM ([1]; 30 µM, read-out: Peak Number—2D Mean): -94.5%; activation at 30 µM ([1]; 30 µM, read-out: Peak amplitude - 2D Mean): -89.8%; activation at 30 µM ([1]; 30 µM, read-out: Peak width - 2D Mean): -92.5%; activation at 30 µM ([1]; 30 µM, read-out: Peak-to-peak interval - 2D Mean): -100%; Free Cmax ([2]; Table 1, peak plasma concentration in men, free therapeutic Cmax): 0.46 µM; Free Cmax ([2]; Table 2, highest plasma concentration in humans after the therapeutic dose): 0.46 µM; Area under the curve - 3D Mean ([3]; 1.11 µM): 104.3 % change from baseline; Peak Number—3D Mean ([3]; 1.11 µM): 2.2 % change from baseline; Peak amplitude - 3D Mean ([3]; 1.11 µM): 97.4 % change from baseline; Peak width - 3D Mean ([3]; 1.11 µM): 0.6 % change from baseline; Peak-to-peak interval - 3D Mean ([3]; 1.11 µM): 12.7 % change from baseline; Area under the curve - 3D Mean ([3]; 3.33 µM): 121.7 % change from baseline; Peak Number—3D Mean ([3]; 3.33 µM): −3.0 % change from baseline; Peak amplitude - 3D Mean ([3]; 3.33 µM): 106.4 % change from baseline; Peak width - 3D Mean ([3]; 3.33 µM): 5.9 % change from baseline; Peak-to-peak interval - 3D Mean ([3]; 3.33 µM): 17.4 % change from baseline; Area under the curve - 3D Mean ([3]; 10 µM): 122.4 % change from baseline; Peak Number—3D Mean ([3]; 10 µM): 12.5 % change from baseline; Peak amplitude - 3D Mean ([3]; 10 µM): 108.6 % change from baseline; Peak width - 3D Mean ([3]; 10 µM): 6.3 % change from baseline; Peak-to-peak interval - 3D Mean ([3]; 10 µM): −6.2 % change from baseline; Area under the curve - 3D Mean ([3]; 30 µM): 132.0 % change from baseline; Peak Number—3D Mean ([3]; 30 µM): 47.2 * % change from baseline; Peak amplitude - 3D Mean ([3]; 30 µM): 113.9 % change from baseline; Peak width - 3D Mean ([3]; 30 µM): 9.0 % change from baseline; Peak-to-peak interval - 3D Mean ([3]; 30 µM): −8.8 % change from baseline
